Consider four compounds from ChEMBL document CHEMBL5715260, “Selectivity Literature for EUbOPEN Chemogenomic Library” (2024).

Assay [1] addresses Steroidogenic factor 1 (Homo sapiens) (UniProt Q13285). The assay can be described thus: Selectivity interaction (Reporter gene assay) EUB0001156a NR5A1. Further details: recommended concentration 1 uM. For orientation: A reporter such as luciferase makes a cellular process visible.
Assay [2] deals with Nuclear receptor subfamily 2 group E member 1 (Homo sapiens) (UniProt Q9Y466). The assay can be described thus: Selectivity interaction (Reporter gene assay) EUB0001156a NR2E1. Further details: recommended concentration 1 uM.
The target in assay [3] is T1, Nuclear receptor subfamily 2 group C member 1 (Homo sapiens) (UniProt P13056).
T1 sequence (whole entry): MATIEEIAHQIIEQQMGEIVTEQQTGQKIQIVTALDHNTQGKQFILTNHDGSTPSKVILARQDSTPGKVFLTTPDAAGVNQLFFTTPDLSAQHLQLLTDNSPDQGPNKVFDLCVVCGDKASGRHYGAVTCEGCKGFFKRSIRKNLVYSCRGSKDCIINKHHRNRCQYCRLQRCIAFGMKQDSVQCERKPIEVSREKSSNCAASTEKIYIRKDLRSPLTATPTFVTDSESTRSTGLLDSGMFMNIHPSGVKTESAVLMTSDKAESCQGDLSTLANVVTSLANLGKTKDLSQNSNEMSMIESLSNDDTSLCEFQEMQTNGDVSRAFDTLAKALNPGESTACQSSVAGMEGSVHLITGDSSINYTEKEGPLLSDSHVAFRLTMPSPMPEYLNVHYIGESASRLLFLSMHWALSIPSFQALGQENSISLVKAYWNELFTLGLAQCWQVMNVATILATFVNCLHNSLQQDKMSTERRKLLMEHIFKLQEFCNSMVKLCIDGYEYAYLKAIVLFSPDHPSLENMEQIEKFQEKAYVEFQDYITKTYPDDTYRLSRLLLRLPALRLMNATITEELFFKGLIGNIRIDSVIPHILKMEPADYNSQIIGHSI
Nature of the assay: Selectivity interaction (Reporter gene assay) EUB0001156a NR2C1. Further details: recommended concentration 1 uM.

The target of assay [4] is T2, Alpha trans-inducing protein (Human alphaherpesvirus 1) (UniProt A0A5J6DW59). Nature of the assay: Selectivity interaction (Reporter gene assay) EUB0001156a UL48. The note with it: screened at recom. conc., Selectivity number of off-targets 0.0, Selectivity number of targets 1.0, Source Knowledge inhouse. Further details: recommended concentration 1 uM.
For assay [5], the target named is T3, Hepatocyte nuclear factor 4-alpha (Homo sapiens) (UniProt P41235).
T3 sequence (whole entry): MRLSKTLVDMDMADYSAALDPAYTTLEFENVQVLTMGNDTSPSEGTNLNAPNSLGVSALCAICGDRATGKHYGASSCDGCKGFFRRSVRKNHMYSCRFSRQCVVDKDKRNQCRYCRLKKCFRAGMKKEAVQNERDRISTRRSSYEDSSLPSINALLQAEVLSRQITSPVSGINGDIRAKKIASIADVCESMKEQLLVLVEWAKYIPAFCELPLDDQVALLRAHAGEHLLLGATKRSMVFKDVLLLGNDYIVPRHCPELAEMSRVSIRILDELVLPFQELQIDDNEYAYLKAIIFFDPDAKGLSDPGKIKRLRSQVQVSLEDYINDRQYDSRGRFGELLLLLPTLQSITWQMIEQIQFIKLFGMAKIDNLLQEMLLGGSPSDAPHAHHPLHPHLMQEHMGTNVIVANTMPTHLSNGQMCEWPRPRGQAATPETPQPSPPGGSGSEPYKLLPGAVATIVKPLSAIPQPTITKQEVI
Nature of the assay: Selectivity interaction (Reporter gene assay) EUB0001156a HNF4A. Further details: recommended concentration 1 uM.

The target of assay [6] is Nuclear receptor subfamily 4immunitygroup A member 1 (Homo sapiens) (UniProt P22736). Nature of the assay: Selectivity interaction (Reporter gene assay) EUB0001156a NR4A1. Further details: recommended concentration 1 uM.
Assay [7] addresses T4, Retinoic acid receptor RXR-alpha (Homo sapiens) (UniProt P19793).
T4 sequence (whole entry): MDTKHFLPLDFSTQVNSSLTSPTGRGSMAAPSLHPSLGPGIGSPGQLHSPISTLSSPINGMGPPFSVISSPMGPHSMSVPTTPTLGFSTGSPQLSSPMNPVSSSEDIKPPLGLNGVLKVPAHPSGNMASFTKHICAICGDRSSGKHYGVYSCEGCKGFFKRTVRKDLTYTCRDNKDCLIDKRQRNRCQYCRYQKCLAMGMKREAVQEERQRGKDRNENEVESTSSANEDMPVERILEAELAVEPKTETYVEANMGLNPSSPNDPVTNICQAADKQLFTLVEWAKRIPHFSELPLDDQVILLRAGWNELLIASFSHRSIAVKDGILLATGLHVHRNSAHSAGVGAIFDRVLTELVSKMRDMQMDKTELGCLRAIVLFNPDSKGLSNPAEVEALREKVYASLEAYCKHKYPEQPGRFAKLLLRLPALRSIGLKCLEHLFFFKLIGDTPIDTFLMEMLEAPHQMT
Nature of the assay: Selectivity interaction (Reporter gene assay) EUB0001156a RXRA. Further details: recommended concentration 1 uM. The note with it: reference bexarotene 1 uM, Selectivity number of off-targets 0.0, Selectivity number of targets 1.0, Source Knowledge inhouse.

For assay [8], the target named is T4, Retinoic acid receptor RXR-alpha (Homo sapiens). The assay can be described thus: Selectivity interaction (Reporter gene assay) EUB0001153a RXRA. Details: recommended concentration 10 uM. The following applies: reference bexarotene 1 uM, Selectivity number of off-targets 0.0, Selectivity number of targets 1.0, Source Knowledge inhouse.
Assay [9] has as its target Nuclear receptor subfamily 4immunitygroup A member 1 (Homo sapiens) (UniProt P22736). The assay can be described thus: Selectivity interaction (Reporter gene assay) EUB0001153a NR4A1. Further details: recommended concentration 10 uM. The note with it: screened at recom. conc., Selectivity number of off-targets 1.0, Selectivity number of targets 5.0, Source Knowledge inhouse.

For assay [10], the target named is T3, Hepatocyte nuclear factor 4-alpha (Homo sapiens). Nature of the assay: Selectivity interaction (Reporter gene assay) EUB0001153a HNF4A. Further details: recommended concentration 10 uM.
The target in assay [11] is T1, Nuclear receptor subfamily 2 group C member 1 (Homo sapiens). The assay can be described thus: Selectivity interaction (Reporter gene assay) EUB0001153a NR2C1. Details: recommended concentration 10 uM.
Assay [12] concerns the target Steroidogenic factor 1 (Homo sapiens) (UniProt Q13285). Nature of the assay: Selectivity interaction (Reporter gene assay) EUB0001153a NR5A1. Further details: recommended concentration 10 uM.
Assay [13] addresses T2, Alpha trans-inducing protein (Human alphaherpesvirus 1). Nature of the assay: Selectivity interaction (Reporter gene assay) EUB0001153a UL48. Further details: recommended concentration 10 uM.
Assay [14] has as its target Nuclear receptor subfamily 2 group E member 1 (Homo sapiens) (UniProt Q9Y466). Nature of the assay: Selectivity interaction (Reporter gene assay) EUB0001153a NR2E1. Further details: recommended concentration 10 uM.
Assay [15] shares this target. Nature of the assay: Selectivity interaction (Reporter gene assay) EUB0001158a NR2E1. Further details: recommended concentration 1 uM.
Assay [16] addresses Nuclear receptor subfamily 4immunitygroup A member 1 (Homo sapiens) (UniProt P22736). The assay can be described thus: Selectivity interaction (Reporter gene assay) EUB0001158a NR4A1. Details: recommended concentration 1 uM.
Assay [17] concerns the target T1, Nuclear receptor subfamily 2 group C member 1 (Homo sapiens). The assay can be described thus: Selectivity interaction (Reporter gene assay) EUB0001158a NR2C1. Further details: recommended concentration 1 uM.
The target in assay [18] is T4, Retinoic acid receptor RXR-alpha (Homo sapiens). Nature of the assay: Selectivity interaction (Reporter gene assay) EUB0001158a RXRA. Further details: recommended concentration 1 uM. The following applies: reference bexarotene 1 uM, Selectivity number of off-targets 0.0, Selectivity number of targets 1.0, Source Knowledge inhouse.
Assay [19] has as its target T2, Alpha trans-inducing protein (Human alphaherpesvirus 1). Nature of the assay: Selectivity interaction (Reporter gene assay) EUB0001158a UL48. Details: recommended concentration 1 uM.
The target of assay [20] is T3, Hepatocyte nuclear factor 4-alpha (Homo sapiens). Nature of the assay: Selectivity interaction (Reporter gene assay) EUB0001158a HNF4A. Details: recommended concentration 1 uM.
Assay [21] has as its target Steroidogenic factor 1 (Homo sapiens) (UniProt Q13285). Nature of the assay: Selectivity interaction (Reporter gene assay) EUB0001158a NR5A1. Details: recommended concentration 1 uM.
The target of assay [22] is T3, Hepatocyte nuclear factor 4-alpha (Homo sapiens). Nature of the assay: Selectivity interaction (Reporter gene assay) EUB0001151a HNF4A. Details: recommended concentration 1 uM.
Assay [23] has as its target Nuclear receptor subfamily 2 group E member 1 (Homo sapiens) (UniProt Q9Y466). The assay can be described thus: Selectivity interaction (Reporter gene assay) EUB0001151a NR2E1. Details: recommended concentration 1 uM.
The target of assay [24] is Nuclear receptor subfamily 4immunitygroup A member 1 (Homo sapiens) (UniProt P22736). Nature of the assay: Selectivity interaction (Reporter gene assay) EUB0001151a NR4A1. Details: recommended concentration 1 uM.
Assay [25] deals with T2, Alpha trans-inducing protein (Human alphaherpesvirus 1). Nature of the assay: Selectivity interaction (Reporter gene assay) EUB0001151a UL48. Further details: recommended concentration 1 uM.
Assay [26] addresses T5, Peroxisome proliferator-activated receptor gamma (Homo sapiens) (UniProt P37231).
T5 sequence (whole entry): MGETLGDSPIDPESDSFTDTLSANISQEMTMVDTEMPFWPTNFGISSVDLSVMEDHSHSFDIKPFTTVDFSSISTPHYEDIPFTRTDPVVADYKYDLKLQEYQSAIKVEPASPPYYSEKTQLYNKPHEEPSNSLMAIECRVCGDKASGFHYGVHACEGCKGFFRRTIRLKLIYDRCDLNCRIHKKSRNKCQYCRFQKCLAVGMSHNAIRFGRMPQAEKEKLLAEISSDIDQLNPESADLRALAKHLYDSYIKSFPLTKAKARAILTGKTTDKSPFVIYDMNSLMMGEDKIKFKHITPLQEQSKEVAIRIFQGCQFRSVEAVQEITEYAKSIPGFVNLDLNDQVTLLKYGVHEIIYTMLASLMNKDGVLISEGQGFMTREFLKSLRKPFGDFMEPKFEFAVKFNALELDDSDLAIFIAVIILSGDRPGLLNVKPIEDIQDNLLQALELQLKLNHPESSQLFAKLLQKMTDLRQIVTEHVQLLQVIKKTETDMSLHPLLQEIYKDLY
Nature of the assay: Selectivity interaction (Reporter gene assay) EUB0001151a PPARG. Details: recommended concentration 1 uM. The following applies: screened at recom. conc., Selectivity number of off-targets 1.0, Selectivity number of targets 19.0, Source Knowledge inhouse.

In assay [27] the target is T1, Nuclear receptor subfamily 2 group C member 1 (Homo sapiens). Nature of the assay: Selectivity interaction (Reporter gene assay) EUB0001151a NR2C1. Further details: recommended concentration 1 uM.
For assay [28], the target named is T4, Retinoic acid receptor RXR-alpha (Homo sapiens). Nature of the assay: Selectivity interaction (Reporter gene assay) EUB0001151a RXRA. Details: recommended concentration 1 uM. The note with it: reference bexarotene 1 uM, Selectivity number of off-targets 0.0, Selectivity number of targets 1.0, Source Knowledge inhouse.
The target in assay [29] is Steroidogenic factor 1 (Homo sapiens) (UniProt Q13285). Nature of the assay: Selectivity interaction (Reporter gene assay) EUB0001151a NR5A1. Details: recommended concentration 1 uM.
Chain of Steroidogenic factor 1 (Homo sapiens) (Q13285 whole entry): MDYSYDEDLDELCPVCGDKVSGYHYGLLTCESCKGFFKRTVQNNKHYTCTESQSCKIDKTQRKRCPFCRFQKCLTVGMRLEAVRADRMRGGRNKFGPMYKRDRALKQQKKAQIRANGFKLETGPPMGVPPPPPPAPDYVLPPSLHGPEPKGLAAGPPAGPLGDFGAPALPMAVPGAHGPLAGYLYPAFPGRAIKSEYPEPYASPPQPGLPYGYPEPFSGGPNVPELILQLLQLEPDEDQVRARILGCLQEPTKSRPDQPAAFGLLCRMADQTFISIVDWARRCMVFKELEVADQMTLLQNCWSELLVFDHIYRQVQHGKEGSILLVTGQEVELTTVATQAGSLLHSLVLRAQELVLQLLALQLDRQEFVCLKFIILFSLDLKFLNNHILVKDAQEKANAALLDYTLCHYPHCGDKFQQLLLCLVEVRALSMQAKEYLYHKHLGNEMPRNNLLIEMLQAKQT

Chain of Nuclear receptor subfamily 4immunitygroup A member 1 (Homo sapiens) (P22736 whole entry): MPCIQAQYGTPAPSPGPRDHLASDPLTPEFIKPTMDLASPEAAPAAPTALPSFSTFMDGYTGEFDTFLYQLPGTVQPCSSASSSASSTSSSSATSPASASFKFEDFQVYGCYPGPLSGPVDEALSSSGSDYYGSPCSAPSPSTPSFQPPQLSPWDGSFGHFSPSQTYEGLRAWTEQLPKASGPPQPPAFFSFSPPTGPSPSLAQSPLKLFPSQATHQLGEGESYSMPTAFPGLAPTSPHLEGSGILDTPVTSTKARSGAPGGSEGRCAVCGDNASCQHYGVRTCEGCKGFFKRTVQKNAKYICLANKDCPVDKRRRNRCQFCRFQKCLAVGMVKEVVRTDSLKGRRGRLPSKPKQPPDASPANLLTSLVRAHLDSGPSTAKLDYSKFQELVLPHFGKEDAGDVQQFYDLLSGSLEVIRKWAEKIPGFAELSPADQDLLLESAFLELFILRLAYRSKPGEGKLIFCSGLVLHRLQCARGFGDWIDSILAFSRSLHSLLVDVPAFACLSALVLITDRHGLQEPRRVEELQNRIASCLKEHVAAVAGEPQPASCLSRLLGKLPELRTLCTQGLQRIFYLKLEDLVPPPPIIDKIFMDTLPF
Chain of Nuclear receptor subfamily 2 group E member 1 (Homo sapiens) (Q9Y466 whole entry): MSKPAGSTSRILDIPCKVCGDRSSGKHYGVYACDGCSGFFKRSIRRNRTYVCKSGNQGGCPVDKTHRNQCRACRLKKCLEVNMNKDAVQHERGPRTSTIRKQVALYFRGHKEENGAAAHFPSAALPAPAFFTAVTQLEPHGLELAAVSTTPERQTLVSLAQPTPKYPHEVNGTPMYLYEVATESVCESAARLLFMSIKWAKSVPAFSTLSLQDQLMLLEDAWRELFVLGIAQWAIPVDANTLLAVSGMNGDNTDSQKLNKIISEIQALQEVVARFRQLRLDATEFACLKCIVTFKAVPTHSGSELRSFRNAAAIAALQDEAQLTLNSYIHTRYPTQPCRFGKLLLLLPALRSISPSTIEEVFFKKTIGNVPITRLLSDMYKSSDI
T2 sequence (A0A5J6DW59 as listed by the source): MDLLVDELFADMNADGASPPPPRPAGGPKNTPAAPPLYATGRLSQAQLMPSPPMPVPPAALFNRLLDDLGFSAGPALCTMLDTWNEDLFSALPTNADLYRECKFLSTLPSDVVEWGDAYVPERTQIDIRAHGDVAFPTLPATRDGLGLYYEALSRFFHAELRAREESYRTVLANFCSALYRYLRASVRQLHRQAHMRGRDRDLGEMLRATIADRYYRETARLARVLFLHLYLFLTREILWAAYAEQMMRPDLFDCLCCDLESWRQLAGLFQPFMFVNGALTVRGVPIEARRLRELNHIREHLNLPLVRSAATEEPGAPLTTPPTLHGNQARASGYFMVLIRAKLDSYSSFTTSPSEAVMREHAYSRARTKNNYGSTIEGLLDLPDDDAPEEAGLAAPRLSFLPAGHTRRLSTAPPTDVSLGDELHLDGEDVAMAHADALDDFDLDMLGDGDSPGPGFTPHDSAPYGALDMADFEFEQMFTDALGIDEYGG

Take `O=C(Nc1ccc(C(O)(C(F)(F)F)C(F)(F)F)cc1)c1ccc(C(F)(F)F)cc1`: the Fold activation was determined as 1.1 in assay [1], 1.1 in assay [3] and 1.11 in assay [5]. Also, the figures for the Remaining activity in [2] and in assay [6] were 0.903 and 0.858, respectively. In assay [4], this compound displayed a P-value of 0.167. In addition, the Relative activation in assay [7] amounted to 0.302%.

`CCOC(=O)C1Cc2ccccc2CN1C(=O)c1ccc(SC)s1` (centres undefined) gave a Relative activation in assay [8] of 0.245%. In addition, the Fold activation in [9] is 2.05; in assay [11] it was 1.13; in assay [12], 1.11; in assay [14] it was 1.33. For the same compound, the Remaining activity in assay [10] was 0.77. Moreover, the P-value in assay [13] amounted to 0.0358.

Regarding `CC(=O)Nc1nc(C)c(S(=O)(=O)Nc2ccc(C(O)(C(F)(F)F)C(F)(F)F)cc2)s1`, the Remaining activity in [15] turned out to be 0.58; in assay [16] it was 0.661; in [17] it was 0.684; in assay [20] it was 0.71; in [21], 0.814. In addition, the Relative activation in assay [18] came to 0.191%. Besides, in [19], the P-value came out at 3.31e-05.

On to `O=C(NCCS(=O)(=O)c1ccc(C(F)(F)F)cn1)c1ccc(Cl)cc1`, for which the Fold activation came to 1.25 in [22], 1.11 in assay [23], 1.27 in assay [24] and 1.39 in assay [27]. The P-value in [25] is 0.0023. Moreover, the Remaining activity came out at 0.832 in assay [26] and 0.9 in [29]. In [28], the Relative activation amounted to 0.596%.
